The values that follow come from paper PMC2821678 (Chemico-biological interactions, 2009).

The test system of data set [1] is Mushroom tyrosinase. The data set can be described thus: Tyrosinase mediated GSH depletion assay. In kind it is biochemical. The conditions noted are these: 2 h incubation.
The test system of a further data set is B16-F0 melanoma cells. The data set can be described thus: MTT cell viability, B16-F0. The note with it: for IC50: Mus musculus, B16F0, 48 h, read-out: IC50 (48 h) B16-F0. In kind it is cell-based, murine.
Data set [2] relates to SK-MEL-28 melanoma cells. The data set can be described thus: MTT cell viability, SK-MEL-28. In kind it is cell-based, human. The conditions noted are these: for IC50: Homo sapiens, SK-MEL-28, 48 h.
In data set [3] the test system is Mushroom tyrosinase. In kind it is biochemical. The conditions noted are these: pH 7.4; for Tyrosinase Kinetics AA (rate of AA oxidation): nM of AA per compound (μM) per tyrosinase (U/ml) per min; for Tyrosinase Kinetics NADH (rate of NADH oxidation): nM of NADH per compound (μM) per tyrosinase (U/ml) per min.
Data set [4] deals with melanocytic SK-MEL-28 melanoma cells. The data set can be described thus: Intracellular GSH measurement, SK-MEL-28. In kind it is cell-based, human.
In data set [5] the test system is amelanotic C32 melanoma cells. The data set can be described thus: Intracellular GSH measurement, C32. In kind it is cell-based, human.
Data set [6] has as its system melanocytic SK-MEL-28 melanoma cells. The data set can be described thus: Reactive oxygen species. In kind it is cell-based, human.
For data set [7], the system named is amelanotic C32 melanoma cells. The data set can be described thus: Reactive oxygen species. In kind it is cell-based, human.
Another data set deals with SK-MEL-5 cells. The data set can be described thus: MTT cell viability, SK-MEL-5. In kind it is cell-based, human. The note with it: 75 μM.
The subject of a further data set is MeWo cells. The data set can be described thus: MTT cell viability, MeWo. In kind it is cell-based, human. The conditions noted are these: 75 μM.
The next data set relates to B16-F10 melanoma cells. The data set can be described thus: MTT cell viability, B16-F10. In kind it is cell-based, murine. The conditions noted are these: 75 μM.
The test system of data set [8] is amelanotic SK-MEL-24 cells. The data set can be described thus: MTT cell viability, SK-MEL-24. In kind it is cell-based. The conditions noted are these: 75 μM.
For a further data set, the system named is amelanotic C32 cells. The data set can be described thus: MTT cell viability, C32. In kind it is cell-based, human. The note with it: 75 μM.
The nature of the next data set: MTT cell viability, PC-3. In kind it is cell-based. The conditions noted are these: human, PC-3 prostate cells.
Another data set can be described thus: MTT cell viability, BJ. In kind it is cell-based. The note with it: human, BJ skin fibroblast cells.
A short description of data set [9]: MTT cell viability, Saos-2. In kind it is cell-based. The note with it: human, Saos-2 osteosarcoma cells.
A short description of data set [10]: MTT cell viability, SW-620. In kind it is cell-based. The conditions noted are these: human, SW-620 colorectal adenocarcinoma cells.
Data set [11] concerns tyrosinase shRNA transfected SK-MEL-28 cells. The data set can be described thus: Drug sensitivity assay using tyrosinase shRNA transfected cells. In kind it is cell-based, human. The conditions noted are these: 75 μM, 48 h, shRNA3 curtailed tyrosinase expression by 50%.
Data set [12] concerns SK-MEL-28 melanoma cells. The data set can be described thus: Cell cycle analyses by flow cytometry. In kind it is cell-based, human. The conditions noted are these: 48 h. (In general: In flow cytometry, cells or beads pass a laser one at a time.)
Setting [13] is: read-out: IC50 (48 h) SK-MEL-28.
Where [14] appears, read: 0.75 mM (750 μM), listed as C00002.

Molecules are shown by their SMILES. Read-outs that look alike come from different tables or passages of the source.

Broadly, the IC50 is the concentration at which inhibition is half-maximal. Consider `O=C(O)c1ccc(O)cc1` [4-hydroxybenzoic acid], for which the “% GSH depletion (2 h) Tyrosinase/O2” value with Mushroom tyrosinase [1] is recorded as 30±5%. Also, the results for the concentration for half-maximal inhibition (IC50) in the data set with B16-F0 melanoma cells and in the data set on SK-MEL-28 melanoma cells [2] (setting [13]) were 4.2 mM and 11.2 mM, respectively.

In the case of `OCc1ccc(O)cc1` [4-hydroxybenzyl alcohol], the half-inhibitory concentration (IC50) came to 2.2 mM in the data set on B16-F0 melanoma cells and 2 mM in the data set on SK-MEL-28 melanoma cells [2] (setting [13]).

With `Cc1ccc(O)cc1` [4-hydroxytoluene], in the data set with SK-MEL-28 melanoma cells [2] (setting [13]), the IC50 turned out to be 2 mM.

For the compound `CC(=O)c1ccccc1` [Acetophenone, acetophenone, reference compound], the “% GSH depletion (2 h) Tyrosinase/O2” value in the data set with Mushroom tyrosinase [1] was 44±3%. The IC50 is greater than 12 mM in the data set on B16-F0 melanoma cells and greater than 10 mM in the data set with SK-MEL-28 melanoma cells [2] (setting [13]).

For `COc1ccccc1` [Anisole, anisole, reference compound], the “% GSH depletion (2 h) Tyrosinase/O2” value with Mushroom tyrosinase [1] is recorded as 21±3%. For the same compound, the values for the concentration for half-maximal inhibition (IC50) in the data set on B16-F0 melanoma cells and in the data set on SK-MEL-28 melanoma cells [2] (setting [13]) were greater than 5 mM and greater than 12 mM, respectively.

As to `O=C(O)c1ccccc1` [Benzoic acid, benzoic acid, reference compound], the “% GSH depletion (2 h) Tyrosinase/O2” value with Mushroom tyrosinase [1] stood at 12±2%. Also, the IC50 in the data set with B16-F0 melanoma cells was 11 mM; with SK-MEL-28 melanoma cells [2] (setting [13]), greater than 10 mM.

Consider `OCc1ccccc1` [Benzyl alcohol, benzyl alcohol, reference compound], for which the “% GSH depletion (2 h) Tyrosinase/O2” value with Mushroom tyrosinase [1] is recorded as 0%. Moreover, the half-maximal inhibitory concentration (IC50) in the data set on B16-F0 melanoma cells was 8 mM; in the data set with SK-MEL-28 melanoma cells [2] (setting [13]) it was greater than 10 mM.

In the case of `CCOC(=O)c1ccc(OC)cc1` [E4MB, ethyl 4-methoxybenzoate], in the data set on Mushroom tyrosinase [1] (listed as C00002), the “% GSH depletion (2 h) Tyrosinase/O2” value was 5±3%. Also, the “Tyrosinase Kinetics AA (rate of AA oxidation)” value with Mushroom tyrosinase [3] is on record as 8 nM; in the data set with Mushroom tyrosinase [3] (listed as C00002), 8 nM ^**. Further, the results for the “Tyrosinase Kinetics NADH (rate of NADH oxidation)” value with Mushroom tyrosinase [3] and in the data set on Mushroom tyrosinase [3] (listed as C00002) were 50 nM and 50 nM ^**, respectively. Also, the half-inhibitory concentration (IC50) with SK-MEL-28 melanoma cells [2] (read-out: IC50 (48 h) SK-MEL-28 cells) worked out at 0.75 mM. The “fold decrease in toxicity when compared to 4-HEB” value in the data set on SK-MEL-28 melanoma cells [2] (from IC50 (48 h), SK-MEL-28) is 10 fold. In addition, the “Intracellular GSH (ICG) depletion (2 h)” value in [4] (0.75 mM (750 μM)) is recorded as 10%; in data set [4] (setting [14]), 10%; in [5] (0.75 mM (750 μM)), 6%; in [5] (setting [14]), 6%. Also, the “Intracellular GSH depletion (2 h)” value in [4] (1 mM) came to 13%; in data set [4] (1.5 mM), 15%; in [5] (1 mM) it was 7%; in data set [5] (1.5 mM), 10%. The “Fold ROS formation (40 min) at IC50” value was determined as 9 Fold in [6] (750 μM, SK-MEL-28) and 4 Fold in data set [7] (750 μM, C32). For the same compound, the ROS formation entry in [6] (750 μM-5 mM, SK-MEL-28, in comparison to 4-HEB) is “significantly lower”; in data set [7] (750 μM-5 mM, C32) it was “negligible”.

With `CCOC(=O)c1ccccc1O` [Ethyl 2-hydroxybenzoate, ethyl 2-hydroxybenzoate], the “% GSH depletion (2 h) Tyrosinase/O2” value in the data set on Mushroom tyrosinase [1] is 22±2%. The values for the concentration for half-maximal inhibition (IC50) in the data set on B16-F0 melanoma cells and with SK-MEL-28 melanoma cells [2] (setting [13]) were 2.6 mM and 2 mM, respectively.

In the case of `CCOC(=O)c1cccc(O)c1` [Ethyl 3-hydroxybenzoate, ethyl 3-hydroxybenzoate], the 50% inhibitory concentration (IC50) in the data set with B16-F0 melanoma cells came out at 1.9 mM; in the data set on SK-MEL-28 melanoma cells [2] (setting [13]) it was 2.1 mM.

The term viability denotes the share of living cells, or the viability signal relative to a control. A low value points to a greater loss of cells. Turning to `CCOC(=O)c1ccc(O)cc1` [Ethyl 4-hydroxybenzoate, ethyl 4-hydroxybenzoate], the figures for the “% GSH depletion (2 h) Tyrosinase/O2” value in the data set with Mushroom tyrosinase [1], in the data set on Mushroom tyrosinase [1] (listed as 4-HEB) and in the data set with Mushroom tyrosinase [1] (listed as C00001) were 24±4%, 24% and 24±4%, respectively. Moreover, the “Tyrosinase Kinetics AA (rate of AA oxidation)” value in the data set on Mushroom tyrosinase [3] (listed as C00001) stood at 143 nM ^*. In addition, the “Tyrosinase Kinetics NADH (rate of NADH oxidation)” value with Mushroom tyrosinase [3] (listed as C00001) turned out to be 389 nM ^*. The anti-proliferative effect in the data set on B16-F0 melanoma cells (75 μM, B16-F0) is on record as 62±11%; in the data set on SK-MEL-28 melanoma cells [2] (75 μM, SK-MEL-28) it was 52±4%; in the data set on SK-MEL-5 cells it was 57±5%; with MeWo cells, 55±8%; in the data set on B16-F10 melanoma cells it was 60±8%; in data set [8] it was 24±3%. In addition, in the data set with amelanotic C32 cells, the anti-proliferative effect is on record as 28±4%. Besides, the values for the half-inhibitory concentration (IC50) in the data set with B16-F0 melanoma cells and in the data set with SK-MEL-28 melanoma cells [2] (setting [13]) were 0.19 mM and 0.075 mM, respectively. For the same compound, the viability at 75 µM was 85 ± 3% in “MTT cell viability, PC-3”; 89 ± 7% in the data set “MTT cell viability, BJ”; 86 ± 1% in data set [9]; 89 ± 4% in data set [10]. Further, the “toxicity prevented by transfection with tyrosinase shRNA clone 3” value in [11] is listed as 24±7%. The “Intracellular GSH (ICG) depletion (2 h)” value in data set [4] (75 μM, listed as C00001) was found to be 37%; in [5] (75 μM, listed as 4-HEB), 8%; in data set [5] (75 μM, listed as C00001), 8%. Further, the “Intracellular GSH depletion (2 h)” value in [5] (150 μM) is 13%. Moreover, the “Fold ROS formation (40 min) at IC50” value was 24 Fold in [6] (75 μM, SK-MEL-28) and 6 Fold in data set [7] (75 μM, C32). In addition, the ROS formation result in data set [6] (75-1500 μM, various time points, SK-MEL-28) was “dose and time dependent increase”; in data set [7] (75-1500 μM, C32, compared with SK-MEL-28), “significantly less”. For the same compound, the “Apoptosis (Sub G0/G1)” value is given as 2.9±0.3 % in the data set with SK-MEL-28 melanoma cells [12] (75 μM), 3.1±0.2 % in the data set with SK-MEL-28 melanoma cells [12] (150 μM), 5.0±0.9 % in the data set with SK-MEL-28 melanoma cells [12] (250 μM) and 6.2±0.8 % with SK-MEL-28 melanoma cells [12] (500 μM). Besides, the G1 with SK-MEL-28 melanoma cells [12] (75 μM) was 74.7±0.8%; in the data set on SK-MEL-28 melanoma cells [12] (150 μM), 72.1±0.7%; in the data set on SK-MEL-28 melanoma cells [12] (250 μM) it was 63.4±1.8 %; in the data set with SK-MEL-28 melanoma cells [12] (500 μM), 59.8±1.6 %. Besides, the G2/M is reported as 9.9±0.1% in the data set on SK-MEL-28 melanoma cells [12] (75 μM), 10.6±0.9% in the data set with SK-MEL-28 melanoma cells [12] (150 μM), 10.7±0.7% with SK-MEL-28 melanoma cells [12] (250 μM) and 10.9±0.4% in the data set on SK-MEL-28 melanoma cells [12] (500 μM). Also, the S with SK-MEL-28 melanoma cells [12] (75 μM) is on record as 12.4±0.7%; in the data set with SK-MEL-28 melanoma cells [12] (150 μM), 13.2±1.2%; in the data set with SK-MEL-28 melanoma cells [12] (250 μM) it was 20.1±2.6 %; in the data set on SK-MEL-28 melanoma cells [12] (500 μM), 22.1±0.9 %.

Regarding `CCOC(=O)c1ccccc1` [Ethyl benzoate, ethyl benzoate, reference compound], the “% GSH depletion (2 h) Tyrosinase/O2” value in the data set with Mushroom tyrosinase [1] is recorded as 26±3%. The IC50 is greater than 10 mM in the data set with B16-F0 melanoma cells and 7 mM in the data set with SK-MEL-28 melanoma cells [2] (setting [13]).

In the case of `Cc1ccccc1` [Toluene, toluene, reference compound], the half-maximal inhibitory concentration (IC50) with B16-F0 melanoma cells is greater than 10 mM; with SK-MEL-28 melanoma cells [2] (setting [13]), 10 mM.
